In patent US20110172296A1, “MODULATION OF TRANSFORMING GROWTH FACTOR-BETA 1 EXPRESSION” (priority 2010, published 2011):
Several values for one entry are separate records, joined by “and”; a condition that tells them apart may be missing. Equal values may be shown once. In the oligonucleotide strings, read from the 5' end, every base follows the letter of its sugar. An asterisk marks phosphorothioate; unmarked linkages are phosphodiester. Other units and linkages are bracketed, terminal groups are in braces. A string of capitals states the bases alone. e = 2'-O-(2-methoxyethyl) (MOE); [5mC] = 5-methylcytosine; d = 2'-deoxy (DNA)

Tested on: human TGF-beta1 mRNA
Experiment: Antisense inhibition of human TGF-beta1 mRNA in HuVEC cells, single 10 nM dose, Lipofectamine 2000 (Example 2)
Type: cell-based
Settings: for % inhibition: 10 nM oligonucleotide, HuVEC, relative to untreated control cells, gapmers targeted to SEQ ID NO: 2; for inhibition of a TGF-beta1 mRNA: threshold lists of Oligo IDs, 10 nM
In short: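 Percent inhibition relative to untreated controls, from qRT-PCR of mRNA corrected for total RNA (RIBOGREEN). Cells were exposed 4 h to 10 nM phosphorothioate 2-13-5 MOE gapmers with Lipofectamine 2000 at 5,000 cells/well. RNA was harvested after roughly 24 h recovery.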

Row | Substance | % inhibition [%] | inhibition of a TGF-beta1 mRNA
1 | 414085 (antisense e[5mC]*eT*dA*dA*dA*dG*dG*dA*dG*dA*d[5mC]*dA*dG*dA*dT*eG*e[5mC]*eT*e[5mC]*eA) [compound 414085] | 66 | 60% and 65%
2 | 414086 (antisense eT*eT*dG*dA*dA*dT*dT*d[5mC]*d[5mC]*dA*dA*d[5mC]*dA*dA*dT*e[5mC]*eA*e[5mC]*eA*eG) [compound 414086] | 54 | 
3 | 414087 (antisense eG*eT*dG*dA*d[5mC]*d[5mC]*dT*dT*d[5mC]*d[5mC]*dA*dA*d[5mC]*dT*dT*eT*eG*eA*eA*eT) [compound 414087] | 77 | 60% and 65% and 70% and 75%
4 | 414088 (antisense eT*eT*d[5mC]*dT*dA*dG*d[5mC]*dA*dT*dT*d[5mC]*dT*dA*dG*dA*eA*eT*e[5mC]*e[5mC]*e[5mC]) [compound 414088] | 66 | 60% and 65%
5 | 414089 (antisense eA*eA*dT*dT*d[5mC]*dT*dA*dG*d[5mC]*dA*dT*dT*d[5mC]*dT*dA*eG*eA*eA*eT*e[5mC]) [compound 414089] | 18 | 
6 | 414090 (antisense eG*eA*dT*dT*d[5mC]*d[5mC]*dA*dA*dT*dG*dT*dT*dT*d[5mC]*dA*eG*e[5mC]*eT*eT*eT) [compound 414090] | 80 | 60% and 65% and 70% and 75% and 80%
7 | 414091 (antisense eG*eG*dT*dA*dT*d[5mC]*d[5mC]*dA*d[5mC]*dA*dA*dT*dT*dG*dG*e[5mC]*e[5mC]*eA*eG*eT) [compound 414091] | 64 | 60%
8 | 414092 (antisense eG*eA*dG*dA*dT*dA*d[5mC]*d[5mC]*dA*dA*dT*dA*dT*dT*d[5mC]*eT*eG*e[5mC]*eT*eT) [compound 414092] | 86 | 60% and 65% and 70% and 75% and 80% and 85%
9 | 414093 (antisense eA*eA*d[5mC]*dA*dT*dT*d[5mC]*d[5mC]*dA*dA*d[5mC]*dA*d[5mC]*dT*dG*eA*eG*eT*eT*e[5mC]) [compound 414093] | 68 | 60% and 65%
10 | 414094 (antisense eT*e[5mC]*dA*dA*dG*dA*dG*dG*dT*dT*d[5mC]*dA*dA*dA*d[5mC]*eT*eG*eA*e[5mC]*eA) [compound 414094] | 67 | 60% and 65%
11 | 414095 (antisense eA*eA*dT*dT*d[5mC]*d[5mC]*dA*dG*dT*dA*dT*dG*d[5mC]*d[5mC]*dA*eG*eT*eA*eT*eT) [compound 414095] | 46 | 
12 | 414096 (antisense e[5mC]*e[5mC]*dA*dA*d[5mC]*d[5mC]*dT*dT*dT*dG*dA*dG*dG*dA*dT*e[5mC]*eT*eT*eG*eG) [compound 414096] | 74 | 60% and 65% and 70%
13 | 414097 (antisense eG*eA*dA*dT*d[5mC]*d[5mC]*dA*dA*d[5mC]*dA*dT*dT*dT*d[5mC]*dA*eG*e[5mC]*eT*eT*eT) [compound 414097] | 74 | 60% and 65% and 70%
14 | 414098 (antisense eA*eA*dG*dG*dG*dA*dG*dG*dA*dA*dT*dA*dA*dG*dG*eT*e[5mC]*eA*eG*eA) [compound 414098] | 70 | 60% and 65% and 70%
15 | 414099 (antisense eG*eT*dA*dG*dG*d[5mC]*dT*dA*dT*dT*dA*dA*dT*dA*dG*eT*eT*eA*eA*eG) [compound 414099] | 37 | 
16 | 414100 (antisense eT*eT*d[5mC]*d[5mC]*dA*d[5mC]*dT*d[5mC]*dA*dA*dT*dG*dA*dA*dT*eG*eG*eA*eA*eA) [compound 414100] | 48 | 

Row | Substance | % inhibition [%] | inhibition of a TGF-beta1 mRNA
17 | 414101 (antisense eG*eA*d[5mC]*dA*dG*d[5mC]*dA*dA*dG*dA*d[5mC]*d[5mC]*dA*dA*d[5mC]*eA*e[5mC]*e[5mC]*eT*eT) [compound 414101] | 70 | 60% and 65% and 70%
18 | 414103 (antisense eA*eT*dT*d[5mC]*dA*dA*dG*dT*dA*dA*dG*dG*dT*d[5mC]*dT*eA*e[5mC]*eA*e[5mC]*eA) [compound 414103] | 58 | 
19 | 414104 (antisense eA*eG*dG*dA*dT*dT*d[5mC]*dA*dA*dG*dT*dA*dA*dG*dG*eT*e[5mC]*eT*eA*e[5mC]) [compound 414104] | 61 | 60%
20 | 414105 (antisense eG*eA*dT*dA*dT*d[5mC]*dT*dA*dG*dA*dG*dG*dA*dA*dT*eA*eT*e[5mC]*eT*eA) [compound 414105] | 27 | 
21 | 414106 (antisense eA*eT*dT*d[5mC]*d[5mC]*dT*dT*dG*dA*dT*dA*dT*d[5mC]*dT*dA*eG*eA*eG*eG*eA) [compound 414106] | 74 | 60% and 65% and 70%
22 | 414107 (antisense eT*eT*d[5mC]*dA*dA*dA*dT*dG*dT*dA*dT*d[5mC]*dT*d[5mC]*dT*eA*eA*eT*eT*eA) [compound 414107] | 7 | 
23 | 414108 (antisense e[5mC]*eA*d[5mC]*dA*dT*dG*d[5mC]*dA*dA*dT*d[5mC]*d[5mC]*dA*d[5mC]*d[5mC]*eG*eT*eG*eT*eT) [compound 414108] | 61 | 60%
24 | 414109 (antisense eG*eG*d[5mC]*d[5mC]*dA*dA*dT*dT*dT*d[5mC]*d[5mC]*dA*dT*dT*dG*e[5mC]*eA*eT*e[5mC]*eT) [compound 414109] | 80 | 60% and 65% and 70% and 75% and 80%
25 | 414110 (antisense eG*eA*dA*d[5mC]*dA*dA*dA*dT*dT*dT*dT*d[5mC]*d[5mC]*dT*dA*eT*eG*eA*eA*eA) [compound 414110] | 14 | 
26 | 414111 (antisense eT*eT*dG*dA*dA*d[5mC]*dA*dA*dG*d[5mC]*d[5mC]*dG*dT*d[5mC]*dT*eA*eG*eG*eT*eG) [compound 414111] | 81 | 60% and 65% and 70% and 75% and 80%
27 | 414112 (antisense eG*eG*d[5mC]*dA*dG*d[5mC]*dA*dT*d[5mC]*dA*d[5mC]*d[5mC]*dT*dG*dG*eG*eA*eA*e[5mC]*eT) [compound 414112] | 57 | 
28 | 414113 (antisense eT*e[5mC]*dT*dG*dG*dG*dA*dA*dA*dA*dA*dG*dA*dG*dT*e[5mC]*e[5mC]*eT*eG*eG) [compound 414113] | 79 | 60% and 65% and 70% and 75%
29 | 414114 (antisense eT*eT*dT*d[5mC]*d[5mC]*dA*dA*dG*dA*dG*d[5mC]*d[5mC]*dA*d[5mC]*dA*eG*eA*eA*eG*e[5mC]) [compound 414114] | 46 | 
30 | 414115 (antisense eT*eT*dT*dT*d[5mC]*d[5mC]*dA*dT*dA*dA*dT*dA*dA*dA*dG*eG*eA*eA*eT*eT) [compound 414115] | 18 | 
31 | 414116 (antisense e[5mC]*eT*dG*dG*dA*dT*dG*dA*dG*dA*dG*dT*dT*dT*dA*e[5mC]*eG*eG*eG*e[5mC]) [compound 414116] | 83 | 60% and 65% and 70% and 75% and 80%
